According to the kinase profiling compilation of Christmann-Franck et al. (2016):

Assays:
Experiment in all cases: KINOMEscan competition binding
Details in all cases: compound 10.0 µM
CDK2 (human) = CDK2 (human) (UniProt P24941)
TLK2 (human) = TLK2 (human) (UniProt Q86UE8)
CRK2 (P.falciparum) = CRK2 (P.falciparum) (UniProt P61075)
FGFR4 (human) = FGFR4 (human) (UniProt P22455)
PAK1 (human) = PAK1 (human) (UniProt Q13153)
MAP3K9 (human) = MAP3K9 (human) (UniProt P80192)
PTK2B (human) = PTK2B (human) (UniProt Q14289)
CDK16 (human) = CDK16 (human) (UniProt Q00536)
DAPK3 (human) = DAPK3 (human) (UniProt O43293)
CAMK4 (human) = CAMK4 (human) (UniProt Q16566)
SRMS (human) = SRMS (human) (UniProt Q9H3Y6)
RIOK3 (human) = RIOK3 (human) (UniProt O14730)
NLK (human) = NLK (human) (UniProt Q9UBE8)
PRKACA (human) = PRKACA (human) (UniProt P17612)
SBK1 (human) = SBK1 (human) (UniProt Q52WX2)
RIOK2 (human) = RIOK2 (human) (UniProt Q9BVS4)
TNIK (human) = TNIK (human) (UniProt Q9UKE5)
MAPK8 (human) = MAPK8 (human) (UniProt P45983)
ABL2 (human) = ABL2 (human) (UniProt P42684)
ERN1 (human) = ERN1 (human) (UniProt O75460)
MARK3 (human) = MARK3 (human) (UniProt P27448)
PRKACB (human) = PRKACB (human) (UniProt P22694)
AXL (human) = AXL (human) (UniProt P30530)
SIK1 (human) = SIK1 (human) (UniProt P57059)
PRKAA2 (human) = PRKAA2 (human) (UniProt P54646)
TAOK1 (human) = TAOK1 (human) (UniProt Q7L7X3)
IRAK1 (human) = IRAK1 (human) (UniProt P51617)
PIP4K2C (human) = PIP4K2C (human) (UniProt Q8TBX8)
MAP3K15 (human) = MAP3K15 (human) (UniProt Q6ZN16)
EPHA4 (human) = EPHA4 (human) (UniProt P54764)
CAMK1G (human) = CAMK1G (human) (UniProt Q96NX5)
MYLK4 (human) = MYLK4 (human) (UniProt Q86YV6)
EPHA2 (human) = EPHA2 (human) (UniProt P29317)
HIPK2 (human) = HIPK2 (human) (UniProt Q9H2X6)
RPS6KA6 KD2 (human) = RPS6KA6 KD2 (human) (UniProt Q9UK32)
CAMKK1 (human) = CAMKK1 (human) (UniProt Q8N5S9)
MAP3K1 (human) = MAP3K1 (human) (UniProt Q13233)
MYO3B (human) = MYO3B (human) (UniProt Q8WXR4)
PIK3C2G (human) = PIK3C2G (human) (UniProt O75747)
CAMK2D (human) = CAMK2D (human) (UniProt Q13557)

Chain of RIOK3 (human) (O14730 whole entry, looked up): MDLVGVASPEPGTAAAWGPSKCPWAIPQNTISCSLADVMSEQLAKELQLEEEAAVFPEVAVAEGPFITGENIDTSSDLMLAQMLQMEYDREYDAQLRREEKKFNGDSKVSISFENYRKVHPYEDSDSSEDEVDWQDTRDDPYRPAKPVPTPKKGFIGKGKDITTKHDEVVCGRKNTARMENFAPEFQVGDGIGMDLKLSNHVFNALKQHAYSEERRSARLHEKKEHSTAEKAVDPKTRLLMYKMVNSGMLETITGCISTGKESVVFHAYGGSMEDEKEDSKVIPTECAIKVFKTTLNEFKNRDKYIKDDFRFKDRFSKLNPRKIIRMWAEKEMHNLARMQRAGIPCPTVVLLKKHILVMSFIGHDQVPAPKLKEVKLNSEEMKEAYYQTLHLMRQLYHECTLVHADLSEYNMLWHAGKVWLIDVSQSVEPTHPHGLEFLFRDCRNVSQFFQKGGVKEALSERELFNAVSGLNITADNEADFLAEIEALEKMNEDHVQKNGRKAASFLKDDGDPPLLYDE
Chain of PIK3C2G (human) (O75747 whole entry, looked up): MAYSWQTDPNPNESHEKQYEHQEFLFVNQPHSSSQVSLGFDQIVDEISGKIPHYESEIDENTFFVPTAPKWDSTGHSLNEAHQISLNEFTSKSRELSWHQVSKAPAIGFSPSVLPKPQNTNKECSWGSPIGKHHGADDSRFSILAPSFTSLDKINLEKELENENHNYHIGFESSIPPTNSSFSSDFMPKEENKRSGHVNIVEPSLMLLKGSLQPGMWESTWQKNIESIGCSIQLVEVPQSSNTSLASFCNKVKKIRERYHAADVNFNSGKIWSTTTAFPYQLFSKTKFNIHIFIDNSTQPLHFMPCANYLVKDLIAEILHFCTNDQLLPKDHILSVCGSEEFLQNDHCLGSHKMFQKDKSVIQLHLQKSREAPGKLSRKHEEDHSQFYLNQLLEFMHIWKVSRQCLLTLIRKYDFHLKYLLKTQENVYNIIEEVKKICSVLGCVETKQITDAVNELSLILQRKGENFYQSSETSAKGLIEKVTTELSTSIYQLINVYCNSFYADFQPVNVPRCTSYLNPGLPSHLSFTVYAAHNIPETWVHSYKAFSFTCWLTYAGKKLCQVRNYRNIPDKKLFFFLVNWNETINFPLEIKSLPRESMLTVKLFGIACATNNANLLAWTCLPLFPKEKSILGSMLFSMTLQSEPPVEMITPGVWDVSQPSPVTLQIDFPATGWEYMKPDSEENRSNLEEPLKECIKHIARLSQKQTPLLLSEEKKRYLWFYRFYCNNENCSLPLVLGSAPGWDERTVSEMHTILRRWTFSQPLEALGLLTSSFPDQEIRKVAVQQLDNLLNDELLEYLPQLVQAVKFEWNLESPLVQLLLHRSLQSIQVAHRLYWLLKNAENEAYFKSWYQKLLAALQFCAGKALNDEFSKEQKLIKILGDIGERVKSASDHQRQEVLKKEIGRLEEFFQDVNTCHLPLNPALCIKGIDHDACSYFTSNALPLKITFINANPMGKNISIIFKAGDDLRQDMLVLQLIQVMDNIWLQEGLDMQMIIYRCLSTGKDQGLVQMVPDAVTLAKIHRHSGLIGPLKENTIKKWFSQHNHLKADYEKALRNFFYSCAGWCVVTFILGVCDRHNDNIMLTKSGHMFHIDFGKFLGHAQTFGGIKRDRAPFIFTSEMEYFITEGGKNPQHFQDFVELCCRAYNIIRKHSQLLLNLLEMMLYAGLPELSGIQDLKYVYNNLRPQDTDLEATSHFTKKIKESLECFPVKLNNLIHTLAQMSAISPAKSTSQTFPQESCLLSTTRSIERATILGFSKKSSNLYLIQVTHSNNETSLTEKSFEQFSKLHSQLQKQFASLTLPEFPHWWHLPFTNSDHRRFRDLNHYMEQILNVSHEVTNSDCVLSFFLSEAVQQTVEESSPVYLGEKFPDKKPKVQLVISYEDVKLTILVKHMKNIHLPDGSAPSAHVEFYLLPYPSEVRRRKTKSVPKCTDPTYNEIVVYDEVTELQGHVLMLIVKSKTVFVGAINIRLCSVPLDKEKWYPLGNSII
Chain of FGFR4 (human) (P22455 whole entry, looked up): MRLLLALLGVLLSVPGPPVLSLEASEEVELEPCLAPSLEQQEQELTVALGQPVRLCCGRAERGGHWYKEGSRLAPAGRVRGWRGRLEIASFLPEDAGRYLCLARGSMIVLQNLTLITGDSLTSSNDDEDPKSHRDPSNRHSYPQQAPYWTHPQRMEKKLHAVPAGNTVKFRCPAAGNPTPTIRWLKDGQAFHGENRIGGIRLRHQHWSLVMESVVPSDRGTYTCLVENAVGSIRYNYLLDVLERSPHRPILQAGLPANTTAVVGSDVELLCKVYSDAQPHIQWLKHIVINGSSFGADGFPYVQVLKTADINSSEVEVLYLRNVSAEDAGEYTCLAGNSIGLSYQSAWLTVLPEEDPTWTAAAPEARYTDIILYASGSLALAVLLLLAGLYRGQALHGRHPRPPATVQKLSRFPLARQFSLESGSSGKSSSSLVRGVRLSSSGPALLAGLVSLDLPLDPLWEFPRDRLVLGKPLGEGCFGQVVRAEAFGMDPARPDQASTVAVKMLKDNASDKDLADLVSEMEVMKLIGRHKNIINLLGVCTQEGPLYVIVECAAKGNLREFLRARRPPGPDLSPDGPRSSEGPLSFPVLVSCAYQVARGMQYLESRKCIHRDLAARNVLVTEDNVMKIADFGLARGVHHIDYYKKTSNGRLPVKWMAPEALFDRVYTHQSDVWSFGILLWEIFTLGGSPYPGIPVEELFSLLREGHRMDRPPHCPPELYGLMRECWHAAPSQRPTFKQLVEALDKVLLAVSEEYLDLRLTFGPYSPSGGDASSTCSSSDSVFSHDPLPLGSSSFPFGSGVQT
Chain of TNIK (human) (Q9UKE5 whole entry, looked up): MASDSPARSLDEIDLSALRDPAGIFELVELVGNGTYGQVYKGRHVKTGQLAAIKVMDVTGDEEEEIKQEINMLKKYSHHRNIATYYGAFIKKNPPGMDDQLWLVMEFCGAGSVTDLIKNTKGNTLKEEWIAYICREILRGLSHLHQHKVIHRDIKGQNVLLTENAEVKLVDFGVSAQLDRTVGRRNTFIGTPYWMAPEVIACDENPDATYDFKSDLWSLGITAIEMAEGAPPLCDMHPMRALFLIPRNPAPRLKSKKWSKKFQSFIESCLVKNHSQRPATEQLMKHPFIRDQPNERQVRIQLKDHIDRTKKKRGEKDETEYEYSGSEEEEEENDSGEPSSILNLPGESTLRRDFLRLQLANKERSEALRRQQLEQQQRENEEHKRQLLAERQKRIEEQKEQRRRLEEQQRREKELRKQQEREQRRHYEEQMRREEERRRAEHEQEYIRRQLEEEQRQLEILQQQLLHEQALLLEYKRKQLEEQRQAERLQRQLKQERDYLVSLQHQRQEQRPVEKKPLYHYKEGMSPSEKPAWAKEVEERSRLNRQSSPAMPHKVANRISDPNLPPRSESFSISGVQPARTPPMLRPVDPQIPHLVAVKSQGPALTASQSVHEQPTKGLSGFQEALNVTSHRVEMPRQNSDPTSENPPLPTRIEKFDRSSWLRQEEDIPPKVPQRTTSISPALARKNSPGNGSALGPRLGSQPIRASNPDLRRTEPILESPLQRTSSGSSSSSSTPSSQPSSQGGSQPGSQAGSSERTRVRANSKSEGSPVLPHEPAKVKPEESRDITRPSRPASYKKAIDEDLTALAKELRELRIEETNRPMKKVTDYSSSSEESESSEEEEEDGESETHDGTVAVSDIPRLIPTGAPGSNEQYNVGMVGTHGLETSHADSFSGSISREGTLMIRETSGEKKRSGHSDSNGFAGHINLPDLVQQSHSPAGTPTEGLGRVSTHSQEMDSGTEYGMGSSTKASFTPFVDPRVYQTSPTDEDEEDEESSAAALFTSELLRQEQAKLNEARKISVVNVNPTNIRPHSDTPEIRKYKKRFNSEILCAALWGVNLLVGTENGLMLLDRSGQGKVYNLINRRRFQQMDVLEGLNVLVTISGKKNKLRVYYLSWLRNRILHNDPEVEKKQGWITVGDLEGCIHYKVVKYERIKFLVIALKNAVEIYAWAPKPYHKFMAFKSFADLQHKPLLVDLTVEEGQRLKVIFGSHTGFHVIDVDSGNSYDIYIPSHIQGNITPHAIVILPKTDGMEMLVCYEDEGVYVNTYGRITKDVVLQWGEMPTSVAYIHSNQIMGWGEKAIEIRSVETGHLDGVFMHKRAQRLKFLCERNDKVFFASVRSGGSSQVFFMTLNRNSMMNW
Chain of NLK (human) (Q9UBE8 whole entry, looked up): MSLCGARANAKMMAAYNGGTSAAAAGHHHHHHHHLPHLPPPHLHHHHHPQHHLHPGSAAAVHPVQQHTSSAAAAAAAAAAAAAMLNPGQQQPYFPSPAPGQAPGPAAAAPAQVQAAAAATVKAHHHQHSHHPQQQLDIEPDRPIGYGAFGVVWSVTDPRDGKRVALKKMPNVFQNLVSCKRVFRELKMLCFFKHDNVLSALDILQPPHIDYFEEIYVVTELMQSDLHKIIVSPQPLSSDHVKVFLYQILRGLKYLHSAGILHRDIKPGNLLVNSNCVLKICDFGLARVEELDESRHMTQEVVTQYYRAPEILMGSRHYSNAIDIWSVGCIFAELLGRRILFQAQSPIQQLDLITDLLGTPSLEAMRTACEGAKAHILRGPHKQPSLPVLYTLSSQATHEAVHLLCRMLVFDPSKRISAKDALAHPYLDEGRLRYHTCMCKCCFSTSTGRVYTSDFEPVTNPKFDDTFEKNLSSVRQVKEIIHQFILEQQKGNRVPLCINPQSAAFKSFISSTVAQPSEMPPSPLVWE
Chain of CRK2 (P.falciparum) (P61075 whole entry, looked up): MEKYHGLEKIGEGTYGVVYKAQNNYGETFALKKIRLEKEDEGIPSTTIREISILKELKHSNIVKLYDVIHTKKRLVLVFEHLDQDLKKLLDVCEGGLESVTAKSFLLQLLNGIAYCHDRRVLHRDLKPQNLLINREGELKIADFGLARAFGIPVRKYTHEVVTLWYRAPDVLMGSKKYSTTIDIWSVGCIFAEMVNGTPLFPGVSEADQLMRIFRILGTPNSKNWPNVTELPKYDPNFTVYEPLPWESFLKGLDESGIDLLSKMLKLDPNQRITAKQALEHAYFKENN

SMILES | kinase still bound, per cent of control (CDK2 (human)) | kinase still bound, per cent of control (TLK2 (human)) | kinase still bound, per cent of control (CRK2 (P.falciparum)) | kinase still bound, per cent of control (FGFR4 (human)) | kinase still bound, per cent of control (PAK1 (human)) | kinase still bound, per cent of control (MAP3K9 (human)) | kinase still bound, per cent of control (CDK16 (human)) | kinase still bound, per cent of control (DAPK3 (human)) | kinase still bound, per cent of control (CAMK4 (human)) | kinase still bound, per cent of control (SRMS (human)) | kinase still bound, per cent of control (RIOK3 (human)) | kinase still bound, per cent of control (NLK (human)) | kinase still bound, per cent of control (PRKACA (human)) | kinase still bound, per cent of control (SBK1 (human)) | kinase still bound, per cent of control (RIOK2 (human)) | kinase still bound, per cent of control (TNIK (human)) | kinase still bound, per cent of control (MAPK8 (human)) | kinase still bound, per cent of control (ERN1 (human)) | kinase still bound, per cent of control (PRKACB (human)) | kinase still bound, per cent of control (AXL (human)) | other results
COc1cc(C(=O)N2CCC(N3CCN(C)CC3)CC2)ccc1Nc1ncc2c(n1)N(C)c1ccccc1C(=O)N2C | 100% | 99% | 100% | 28% | 95% | 93% | 96% | 67% | 79% | 77% | 85% | 50% | 100% | 100% | 100% | 100% | 95% | 59% | 100% | 100% | kinase still bound, per cent of control (PTK2B (human)): 78%; kinase still bound, per cent of control (ABL2 (human)): 97%; kinase still bound, per cent of control (MARK3 (human)): 98%; kinase still bound, per cent of control (SIK1 (human)): 77%; kinase still bound, per cent of control (PRKAA2 (human)): 66%; kinase still bound, per cent of control (TAOK1 (human)): 28%; kinase still bound, per cent of control (IRAK1 (human)): 100%; kinase still bound, per cent of control (PIP4K2C (human)): 40%; kinase still bound, per cent of control (MAP3K15 (human)): 69%; kinase still bound, per cent of control (EPHA4 (human)): 89%; kinase still bound, per cent of control (CAMK1G (human)): 74%; kinase still bound, per cent of control (MYLK4 (human)): 80%; kinase still bound, per cent of control (EPHA2 (human)): 92%; kinase still bound, per cent of control (HIPK2 (human)): 88%; kinase still bound, per cent of control (RPS6KA6 KD2 (human)): 2.2%; kinase still bound, per cent of control (CAMKK1 (human)): 73%; kinase still bound, per cent of control (MAP3K1 (human)): 95%; kinase still bound, per cent of control (MYO3B (human)): 83%; kinase still bound, per cent of control (PIK3C2G (human)): 100%; kinase still bound, per cent of control (CAMK2D (human)): 28%
COc1cc2ncn(-c3cc(OCc4ccccc4C(F)(F)F)c(C(N)=O)s3)c2cc1OC | 73% | 100% | 93% | 77% | 100% | 71% | 100% | 19% | 100% | 58% | 4.2% | 68% | 100% | 96% | 66% | 32% | 100% | 75% | 100% | 65% | kinase still bound, per cent of control (PTK2B (human)): 72%; kinase still bound, per cent of control (MARK3 (human)): 78%; kinase still bound, per cent of control (SIK1 (human)): 40%; kinase still bound, per cent of control (PRKAA2 (human)): 92%; kinase still bound, per cent of control (TAOK1 (human)): 47%; kinase still bound, per cent of control (IRAK1 (human)): 54%; kinase still bound, per cent of control (PIP4K2C (human)): 26%; kinase still bound, per cent of control (MAP3K15 (human)): 63%; kinase still bound, per cent of control (EPHA4 (human)): 83%; kinase still bound, per cent of control (CAMK1G (human)): 72%; kinase still bound, per cent of control (MYLK4 (human)): 17%; kinase still bound, per cent of control (EPHA2 (human)): 44%; kinase still bound, per cent of control (HIPK2 (human)): 89%; kinase still bound, per cent of control (MAP3K1 (human)): 1.6%; kinase still bound, per cent of control (MYO3B (human)): 100%; kinase still bound, per cent of control (PIK3C2G (human)): 100%; kinase still bound, per cent of control (CAMK2D (human)): 75%
C[C@@H](Oc1cc(-c2cnn(C3CCNCC3)c2)cnc1N)c1c(Cl)ccc(F)c1Cl | 81% | 100% | 95% | 98% | 95% | 80% | 96% | 94% | 100% | 54% | 3.4% | 93% | 100% | 6% | 56% | 51% | 100% | 42% | 100% | 5.3% | kinase still bound, per cent of control (ABL2 (human)): 0.85%; kinase still bound, per cent of control (SIK1 (human)): 24%; kinase still bound, per cent of control (PRKAA2 (human)): 17%; kinase still bound, per cent of control (TAOK1 (human)): 1.2%; kinase still bound, per cent of control (IRAK1 (human)): 0%; kinase still bound, per cent of control (PIP4K2C (human)): 100%; kinase still bound, per cent of control (MAP3K15 (human)): 73%; kinase still bound, per cent of control (EPHA4 (human)): 6%; kinase still bound, per cent of control (CAMK1G (human)): 76%; kinase still bound, per cent of control (MYLK4 (human)): 86%; kinase still bound, per cent of control (EPHA2 (human)): 1.5%; kinase still bound, per cent of control (HIPK2 (human)): 93%; kinase still bound, per cent of control (RPS6KA6 KD2 (human)): 35%; kinase still bound, per cent of control (CAMKK1 (human)): 60%; kinase still bound, per cent of control (MAP3K1 (human)): 4.4%; kinase still bound, per cent of control (MYO3B (human)): 100%; kinase still bound, per cent of control (PIK3C2G (human)): 22%; kinase still bound, per cent of control (CAMK2D (human)): 100%
COc1cc2ncnc(-n3nc(-c4ccccn4)nc3N)c2cc1OC | 50% | 40% | 94% | 96% | 70% | 70% | 47% | 4.6% | 100% | 27% | 32% | 6.6% | 100% | 100% | 2% | 40% | 12% | 46% | 100% | 6% | kinase still bound, per cent of control (PTK2B (human)): 75%; kinase still bound, per cent of control (ABL2 (human)): 33%; kinase still bound, per cent of control (MARK3 (human)): 100%; kinase still bound, per cent of control (SIK1 (human)): 45%; kinase still bound, per cent of control (PRKAA2 (human)): 27%; kinase still bound, per cent of control (TAOK1 (human)): 3.2%; kinase still bound, per cent of control (IRAK1 (human)): 2.8%; kinase still bound, per cent of control (PIP4K2C (human)): 1.1%; kinase still bound, per cent of control (MAP3K15 (human)): 54%; kinase still bound, per cent of control (EPHA4 (human)): 34%; kinase still bound, per cent of control (CAMK1G (human)): 34%; kinase still bound, per cent of control (MYLK4 (human)): 25%; kinase still bound, per cent of control (EPHA2 (human)): 27%; kinase still bound, per cent of control (HIPK2 (human)): 0.65%; kinase still bound, per cent of control (RPS6KA6 KD2 (human)): 6.2%; kinase still bound, per cent of control (CAMKK1 (human)): 17%; kinase still bound, per cent of control (MAP3K1 (human)): 66%; kinase still bound, per cent of control (MYO3B (human)): 100%; kinase still bound, per cent of control (PIK3C2G (human)): 8.2%; kinase still bound, per cent of control (CAMK2D (human)): 55%
